Measured values reported in US20240246943A1, “MULTIFACETED APPROACH TO NOVEL INTERLEUKIN-6 INHIBITORS” (UNIVERSITY OF FLORIDA RESEARCH FOUNDATION, INCORPORATED, priority 2021, published 2024).
Read-outs that look alike come from different tables or passages of the source. Marks after values point to notes of the source that are not given here. Each block holds one compound with its values, some of them ahead of it.

Columns and labels:
Assay type in all cases: cell-based
[1] = tested on: MDA-MB-231 breast cancer cells; assay: MTT cell viability assay, MDA-MB-231
Experimental: (§1) Cell viability of MDA-MB-231 breast cancer cells was evaluated by using the MTT assay in triple replicates in one experiment and repeated for three times (FIG. 3). […] The cells were incubated at 37° C. for a period of 24 hours. Escalating concentrations of IL-6/gp130 inhibitors (e.g., compounds of Formula (A), (B), (C), (D), (E), or (F) including LLM-418, bazedoxifene, LS-28-3, and COMP-D (LS-101-D)) were added in triplicate to the plates in the presence of 10% FBS. After incubation for 72 hours (unless otherwise noted), a stock solution of MTT (0.5 mg/ml) was then added to each well containing the treated cells, followed by incubation at 37° C. for 3 h. After removal of medium, the MTT dye was dissolved with spectrophotometric grade DMSO and the absorbance was read at 570 nm. The IC50 value is determined by interpolation based on the absorbance value halfway between positive and negative controls.

[2] = tested on: SUM159 breast cancer cells; assay: MTT cell viability assay, SUM159; conditions: for IC50 / IC50 Values in Breast Cancer Cell Lines, SUM159 / SUM159 IC50: 72 hours, Inactive = no measurable activity at 20 μM
Experimental: Cell viability of MDA-MB-231 breast cancer cells was evaluated by using the MTT assay in triple replicates in one experiment and repeated for three times (FIG. 3). MDA-MB-231 SUM159, SUM159 […], MDA-MB-231 breast cancer cells or SUM149 or HCC1937 BRCA mutant breast cancer cells were seeded in 96-well plates at a density of 3,000 cells per well. The cells were incubated at 37° C. for a period of 24 hours. Escalating concentrations of IL-6/gp130 inhibitors (e.g., compounds of Formula (A), (B), (C), (D), (E), or (F) including LLM-418, bazedoxifene, LS-28-3, and COMP-D (LS-101-D)) were added in triplicate to the plates in the presence of 10% FBS. After incubation for 72 hours (unless otherwise noted), a stock solution of MTT (0.5 mg/ml) was then added to each well containing the treated cells, followed by incubation at 37° C. for 3 h. After removal of medium, the MTT dye was dissolved with spectrophotometric grade DMSO and the absorbance was read at 570 nm. The IC50 value is determined by interpolation based on the absorbance value halfway between positive and negative controls.

[3] = tested on: SUM159 gp130ko breast cancer cells; assay: MTT cell viability assay, SUM159 gp130ko; conditions: 72 hours, read-out: IC50 Values in Breast Cancer Cell Lines, SUM159 gp130ko
Experimental: as §1

[4] = tested on: MDA-MB-231 Bone Metastatic breast cancer cells; assay: MTT cell viability assay, MDA-MB-231 Bone Metastatic; conditions: 72 hours
Experimental: as §1

IL-6 induced p-STAT3 = assay: Selectivity study, western blot, T47D cells, IL-6 stimulation; conditions: T47D breast cancer cells, compound 2 hours, then cytokine 30 minutes
Experimental: (§2) Cells were harvested and lysed in cold radioimmunoprecipitation assay (RIPA) lysis buffer containing proteasome inhibitor cocktail and phosphatase inhibitor cocktail. The protein concentrations were determined using the BCA Protein Assay kit. After adding the loading buffer and boiling at 95° C. for 10 minutes, equivalent amounts of proteins were loaded on and separated by SDS-PAGE, and then were transferred to PVDF membranes. Membranes were probed with primary antibodies (1:1000) against gp130 and GAPDH. Membranes were analyzed using Enhanced Chemiluminescence Plus reagents and either scanned with the Storm Scanner (Amersham Pharmacia Biotech, Inc., Piscataway, NJ) or imaged with ChemiDoc MP imaging system (Bio-Rad, Hercules, CA).
(§3) Inhibition of downstream STAT3 phosphorylation was performed. T47D breast cancer cells, which lack endogenous IL-6, were treated with LLM418-MCBu for 2 hours. Then, cytokine was administered for 30 minutes (IL-6, INF, LIF, or OSM). Western blot conducted afterwards to assess dose-dependent inhibition of IL-6 signaling (or lack thereof) (FIG. 5).

induced p-STAT1 = assay: Selectivity study, western blot, T47D cells, IFN stimulation; conditions: T47D breast cancer cells, compound, then cytokine
Experimental: as §2, §3

[5] = Homo sapiens, MDA-MB-231, Table 3 batch studies (independent from Table 1), MTT, 72 hours, Inactive = no measurable activity at 20 μM, read-out: MDA-MB-231 IC50
[6] = SUM159, Table 3 batch studies (independent from Table 1), read-out: SUM159 IC50
[7] = Homo sapiens, MDA-MB-231, Table 1 batch studies, MTT, 72 hours, Inactive = no measurable activity at 20 μM, read-out: IC50 Values in Breast Cancer Cell Lines, MDA-MB-231
[8] = SUM159, Table 1 batch studies, read-out: IC50 Values in Breast Cancer Cell Lines, SUM159
[9] = Table 1 batch studies, MTT, 72 hours, Inactive = no measurable activity at 20 μM, read-out: IC50 Values in Breast Cancer Cell Lines, MDA-MB-231
[10] = Table 3 batch studies (independent from Table 1), MTT, 72 hours, Inactive = no measurable activity at 20 μM, read-out: MDA-MB-231 IC50
[11] = Table 1 batch studies, read-out: IC50 Values in Breast Cancer Cell Lines, SUM159
[12] = Table 3 batch studies (independent from Table 1), read-out: SUM159 IC50
[13] = Homo sapiens, MDA-MB-231, Table 1 batch studies, read-out: IC50 Values in Breast Cancer Cell Lines, MDA-MB-231 Bone Metastatic
[14] = Homo sapiens, MDA-MB-231, Table 3 batch studies (independent from Table 1), read-out: MDA-MB-231 Bone Metastatic IC50
[15] = Table 1 batch studies, MTT, 72 hours, Inactive = no measurable activity at 20 μM
[16] = Table 3 batch studies (independent from Table 1), MTT, 72 hours, Inactive = no measurable activity at 20 μM
[17] = Table 3 batch studies (independent from Table 1)

Structure (SMILES): Cc1c(-c2ccc(O)cc2)n(Cc2ccc(OCCN3CCCCCC3)cc2)c2ccc(O)cc12 [Bazedoxifene, bazedoxifene, reference compound]
- IC50 [1, 5]: 12 µM
- IC50 [2, 6]: 7.1 µM

Structure (SMILES): O=C(Nc1ccccc1-n1cccc1)c1ccc(OCCCN2CCCCC2)cc1 [LLM4-S1, N-(2-(1H-pyrrol-1-yl)phenyl)-4-(3-(piperidin-1-yl)propoxy)benzamide]
- IC50 [1, 7]: 53.1 µM
- IC50 [1, 5]: 53.1 µM
- IC50 [2, 8]: 58.7 µM
- IC50 [2, 6]: 58.7 µM

Structure (SMILES): O=C(Nc1cc(F)ccc1N1CCCC1)c1ccc(OCCCN2CCCCC2)cc1 [LLM4-S2, N-(5-fluoro-2-(pyrrolidin-1-yl)phenyl)-4-(3-(piperidin-1-yl)propoxy)benzamide]
- IC50 [1, 7]: 47.8 µM
- IC50 [1, 5]: 47.8 µM
- IC50 [2, 8]: 24.7 µM
- IC50 [2, 6]: 24.7 µM

Structure (SMILES): O=C(Nc1ccccc1N1CCCC1)c1ccc(OCCCN2CCCCC2)cc1 [LLM4-S3, 4-(3-(piperidin-1-yl)propoxy)-N-(2-(pyrrolidin-1-yl)phenyl)benzamide]
- IC50 [1, 7]: 49.1 µM
- IC50 [1, 5]: 49.1 µM
- IC50 [2, 8]: 46.1 µM
- IC50 [2, 6]: 46.1 µM

Structure (SMILES): O=C(Nc1cc(F)ccc1-n1cccc1)c1ccc(OCCCN2CCCCC2)cc1 [LLM4]
- IC50 [1, 9]: 47.7 µM
- IC50 [1, 10]: 47.7 µM
- IC50 [2, 11]: 31.1 µM
- IC50 [2, 12]: 31.1 µM

Structure (SMILES): O=C(Nc1ccccc1-c1ccn[nH]1)c1ccc(OCCN2CCCCC2)cc1 [LLM418, N-(2-(1H-pyrazol-5-yl)phenyl)-4-(2-(piperidin-1-yl)ethoxy)benzamide]
- IC50 [1, 7]: 25.1 µM
- IC50 [1, 5]: 28.1 µM
- IC50 ([3]; SUM159, Table 1 batch studies): 22.5 µM
- IC50 [4, 13]: 23.7 µM
- IC50 [4, 14]: 23.7 µM
- IC50 [2, 8]: 16.3 µM
- IC50 [2, 6]: 16.3 µM

Structure (SMILES): CC(C)[C@H]1COC(=O)N1c1ccc(C(=O)Nc2ccccc2-c2cc[nH]n2)cc1 [LS-28-2, (S)—N-(2-(1H-pyrazol-3-yl)phenyl)-4-(4-isopropyl-2-oxooxazolidin-3-yl)benzamide]
- Percent cells remaining after treatment with 20 μM compound, MDA-MB-231 ([1]; Table 1 batch studies, MTT): 21%*
- Percent cells remaining after treatment with 20 μM compound, MDA-MB-231 ([1]; Table 3 batch studies, MTT): 21%*
- Percent cells remaining after treatment with 20 μM compound, SUM159 ([2]; Table 1 batch studies): 33%*
- Percent cells remaining after treatment with 20 μM compound, SUM159 ([2]; Table 3 batch studies): 33%*

Now from value to compound, other results behind:

- IC50 [1, 7]: 17.5 µM
- IC50 [1, 5]: 17.5 µM
- IC50 ([3]; SUM159, Table 1 batch studies): 18.2 µM
- IC50 [4, 13]: 16.8 µM
- IC50 [4, 14]: 16.8 µM
- IC50 [2, 8]: 13.5 µM
- IC50 [2, 6]: 17.4 µM
Structure (SMILES): CCn1ccc(-c2ccccc2NC(=O)c2ccc(OCCN3CCCCC3)cc2)n1 [LLM418-Et, N-(2-(1-ethyl-1H-pyrazol-3-yl)phenyl)-4-(2-(piperidin-1-yl)ethoxy)benzamide]
- Inhibition of IL-6 induced p-STAT3 (IL-6 induced p-STAT3): inhibit both IL-6 induced p-STAT3 and IFN-7 induced p-STAT1
- Inhibition of IFN-7 induced p-STAT1 (induced p-STAT1): inhibit both IL-6 induced p-STAT3 and IFN-7 induced p-STAT1

- IC50 [1, 7]: 169 µM
- IC50 [1, 5]: 169 µM
- IC50 [2, 8]: 16 µM
- IC50 [2, 6]: 16 µM
Structure (SMILES): O=C(Nc1ccccc1-c1ccn(CC(F)(F)F)n1)c1ccc(OCCN2CCCCC2)cc1 [LLM418-MCF3, 4-(2-(piperidin-1-yl)ethoxy)-N-(2-(1-(2,2,2-trifluoroethyl)-1H-pyrazol-3-yl)phenyl)benzamide]

- IC50 [1, 7]: 5.8 µM
- IC50 [1, 5]: 5.8 µM
Structure (SMILES): CCCn1ccc(-c2ccccc2NC(=O)c2ccc(OCCN3CCCCC3)cc2)n1 [LLM418-Pr, N-(2-(1-propyl-1H-pyrazol-3-yl)phenyl)-4-(2-(piperidin-1-yl)ethoxy)benzamide]

- IC50 ([1]; Homo sapiens, MDA-MB-231, Table 1 batch studies, 48-hour MTT, read-out: IC50, MDA-MB-231, 48-hour MTT): 11.3 µM
- IC50 ([1]; Homo sapiens, MDA-MB-231, Table 3 batch studies, 48-hour MTT, read-out: MDA-MB-231 IC50, 48-hour MTT): 11.3 µM
Structure (SMILES): c1ccc2c(c1)nc(-c1ccc(OCCN3CCCCC3)cc1)n1nccc21 [LLM418-SC, 5-(4-(2-(piperidin-1-yl)ethoxy)phenyl)pyrazolo[1,5-c]quinazoline]

- IC50 [1, 10]: 67 µM
- IC50 [2, 12]: 16 µM
Structure (SMILES): CC1(C)O[C@@H]2[C@@H](CO[C@@]3(Cn4cc(-c5cccc(NC(=O)c6ccc(OCCN7CCCCC7)cc6)c5)nn4)OC(C)(C)O[C@@H]23)O1 [LS-TF-3P]

- IC50 [1, 9]: 18.4 µM
- IC50 [1, 10]: 18.4 µM
- IC50 ([3]; Table 1 batch studies): 26.7 µM
- IC50 ([4]; Table 3 batch studies (independent from Table 1), read-out: MDA-MB-231 Bone Metastatic IC50): 26.7 µM
- IC50 [2, 11]: 26.1 µM
- IC50 [2, 12]: 26.1 µM
Structure (SMILES): CC1(C)O[C@@H]2[C@@H](CO[C@@]3(Cn4cc(-c5ccc(NC(=O)c6ccc(OCCN7CCCCC7)cc6)cc5)nn4)OC(C)(C)O[C@@H]23)O1 [LS-TF-4P]

- IC50 Values in Breast Cancer Cell Lines, MDA-MB-231 [1, 15]: Inactive
- MDA-MB-231 IC50 [1, 16]: Inactive
- IC50 Values in Breast Cancer Cell Lines, SUM159 ([2]; Table 1 batch studies): Inactive
- SUM159 IC50 [2, 17]: Inactive
Structure (SMILES): O=C(Nc1ccccc1-c1cn([C@@H]2OC[C@@H](O)[C@H](O)[C@H]2O)nn1)c1ccc(OCCN2CCCCC2)cc1 [LS-TX-2, 4-(2-(piperidin-1-yl)ethoxy)-N-(2-(1-((2R,3R,4S,5R)-3,4,5-trihydroxytetrahydro-2H-pyran-2-yl)-1H-1,2,3-triazol-4-yl)phenyl)benzamide·acetic acid]

- IC50 Values in Breast Cancer Cell Lines, MDA-MB-231 [1, 15]: Inactive
- MDA-MB-231 IC50 [1, 16]: Inactive
- IC50 Values in Breast Cancer Cell Lines, SUM159 ([2]; Table 1 batch studies): Inactive
- SUM159 IC50 [2, 17]: Inactive
Structure (SMILES): O=C(Nc1cccc(-c2cn([C@@H]3OC[C@@H](O)[C@H](O)[C@H]3O)nn2)c1)c1ccc(OCCN2CCCCC2)cc1 [LS-TX-3, 4-(2-(piperidin-1-yl)ethoxy)-N-(3-(1-((2R,3R,4S,5R)-3,4,5-trihydroxytetrahydro-2H-pyran-2-yl)-1H-1,2,3-triazol-4-yl)phenyl)benzamide·acetic acid]

- IC50 Values in Breast Cancer Cell Lines, MDA-MB-231 [1, 15]: Inactive
- MDA-MB-231 IC50 [1, 16]: Inactive
- IC50 Values in Breast Cancer Cell Lines, SUM159 ([2]; Table 1 batch studies): Inactive
- SUM159 IC50 [2, 17]: Inactive
Structure (SMILES): O=C(Nc1ccc(-c2cn([C@@H]3OC[C@@H](O)[C@H](O)[C@H]3O)nn2)cc1)c1ccc(OCCN2CCCCC2)cc1 [LS-TX-4, 4-(2-(piperidin-1-yl)ethoxy)-N-(4-(1-((2R,3R,4S,5R)-3,4,5-trihydroxytetrahydro-2H-pyran-2-yl)-1H-1,2,3-triazol-4-yl)phenyl)benzamide·acetic acid]
